Results: article PMC8348686, “The Pharmacological Profile of Second Generation Pyrovalerone Cathinones and Related Cathinone Derivative” (International Journal of Molecular Sciences, 2021)

How the values were obtained:
[1] = target: T1, human norepinephrine (hNET) uptake transporter (Homo sapiens, UniProt P23975); assay: Monoamine uptake inhibition, norepinephrine uptake in transfected HEK293 cells; assay type: cell-based; conditions: for fold higher inhibition potency at the NET: compared to α-PPP
T1 construct: expressed in transfected cells; host or cells: HEK293
T1 sequence (P23975 whole entry): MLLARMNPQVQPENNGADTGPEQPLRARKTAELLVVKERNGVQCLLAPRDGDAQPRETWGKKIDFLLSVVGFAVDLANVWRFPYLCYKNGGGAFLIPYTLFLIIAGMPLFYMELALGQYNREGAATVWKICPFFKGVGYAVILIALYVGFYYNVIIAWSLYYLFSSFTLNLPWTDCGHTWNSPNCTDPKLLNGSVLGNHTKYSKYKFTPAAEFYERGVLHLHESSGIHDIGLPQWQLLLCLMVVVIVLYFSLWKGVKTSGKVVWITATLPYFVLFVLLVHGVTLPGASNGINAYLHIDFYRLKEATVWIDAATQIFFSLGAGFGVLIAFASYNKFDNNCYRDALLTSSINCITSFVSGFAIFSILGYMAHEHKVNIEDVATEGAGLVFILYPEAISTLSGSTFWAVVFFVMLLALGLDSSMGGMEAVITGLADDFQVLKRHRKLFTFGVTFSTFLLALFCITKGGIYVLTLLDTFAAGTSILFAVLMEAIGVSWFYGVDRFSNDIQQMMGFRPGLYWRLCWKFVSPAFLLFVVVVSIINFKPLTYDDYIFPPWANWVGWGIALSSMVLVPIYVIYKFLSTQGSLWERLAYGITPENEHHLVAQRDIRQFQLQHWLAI
Method: The monoamine uptake transporter inhibition was examined in accordance with previously described methods by for each substance of interest.
Human embryonic kidney 293 (HEK293) cells (Invitrogen, Zug, Switzerland) stably transfected with the human norepinephrine (hNET), dopamine (hDAT), or serotonin (hSERT) uptake transporters were briefly cultured in Dulbecco’s modified Eagle’s medium (DMEM; Gibco, Life Technologies, Zug, Switzerland) containing 10% fetal bovine serum and 250 μg/mL geneticin (Gibco, Life Technologies, Zug, Switzerland). Next, the cells were detached at a confluency of 70−90% and resuspended in Krebs–Ringer Bicarbonate Buffer (Sigma-Aldrich, Buchs, Switzerland) at a concentration of 3 × 10^6 cells per ml. The uptake buffer was additionally supplemented with 0.2 mg/mL of ascorbic acid (Sigma–Aldrich, Buchs, Switzerland) for the [^3H]-DA uptake experiments.
In summary, using round bottom 96-well plates, 100 μL of cell suspension was incubated in 25 μL of buffer containing test substances, vehicle control (0.7% dimethyl sulfoxide, DMSO), or 10 μM of the respective monoamine uptake inhibitor, mainly fluoxetine (SERT), nisoxetine (NET), or mazindol (DAT) for 10 min at room temperature while on a rotary shaker at 450 rpm (Thermomixer Comfort, Eppendorf, Hamburg, Germany). Thereafter, the monoamine uptake transporter was initiated by the addition of 50 μL of each respective radiolabelled neurotransmitter ([^3H]-5-HT, [^3H]-DA or [^3H]-NE) dissolved in the uptake buffer to a final concentration of 5 nM for an additional 10 min. Then, 100 μL of cell suspension mixture was transferred to microcentrifuge tubes containing 50 μL of 3 M potassium hydroxide (KOH, Sigma–Aldrich, Buchs, Switzerland) and 200 μL silicon oil (1:1 mixture of silicon oil type AR20 and AR200; Sigma–Aldrich, Buchs, Switzerland). Immediately after, the tubes were centrifugated (3 min, 13200 rpm) to terminate the uptake reaction by allowing the cells to move through the silicon oil into the KOH, which then lysed the cells. Quickly after, the tubes were immediately frozen with liquid nitrogen. Afterwards, the frozen cell pellet was cut off into 6 mL scintillation vials (Perkin–Elmer, Schwerzenbach, Switzerland) filled with 500 μL of lysis buffer (5 mM EDTA, 0.05 M TRIS-HCl, 50 mM NaCl and 1% NP-40 in water). Directly after the vials were shaken for 1 h at 700 rpm and then each vial was filled with 3 mL of scintillation fluid (Ultimagold, Perkin–Elmer, Schwerzenbach, Switzerland). The uptake of the monoamines was measured using a liquid scintillation counter (Packard Tri-Carb Liquid Scintillation Counter 1900 TR).
The data were analysed using Prism software (version 8, GraphPad, San Diego, CA, USA) and was fitted by a nonlinear regression to variable-slope sigmoidal dose-response curve. The IC50 values were extracted in order to determine each drug’s inhibition potency at the various monoamine transporters.

[2] = target: T2, h5-HT1A receptor (Homo sapiens, UniProt P08908); assay: Radioligand binding, [3H]-8-OH-DPAT
T2 construct: expressed in transfected cells; host or cells: HEK293 cell preparations
T2 sequence (P08908 1-422): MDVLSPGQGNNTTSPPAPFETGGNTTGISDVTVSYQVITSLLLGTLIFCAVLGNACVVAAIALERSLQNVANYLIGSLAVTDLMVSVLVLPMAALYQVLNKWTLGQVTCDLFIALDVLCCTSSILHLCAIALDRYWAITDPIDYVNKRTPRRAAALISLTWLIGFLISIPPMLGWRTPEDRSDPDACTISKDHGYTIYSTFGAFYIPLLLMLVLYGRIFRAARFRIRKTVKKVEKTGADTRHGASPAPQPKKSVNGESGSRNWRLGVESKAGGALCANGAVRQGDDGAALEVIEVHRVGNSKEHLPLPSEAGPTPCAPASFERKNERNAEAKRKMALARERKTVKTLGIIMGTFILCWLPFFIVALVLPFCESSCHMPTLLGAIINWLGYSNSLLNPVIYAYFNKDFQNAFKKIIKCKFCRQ
Method: The radioligand binding assays for the human 5-HT1A, 5-HT2A, and 5-HT2C receptors were examined as previously described by. In summary, the human embryonic kidney 293 (HEK293) cell preparations were stably transfected with the human 5-HT1A, 5-HT2A or 5-HT2C receptors and then incubated with their respective radiolabelled ligands at a concentration equal to the dissociation constant, Kd. The following radioligands were used for the 5-HT1A, 5-HT2A, and 5-HT2C receptors, respectively; 0.90 nM [^3H]8-hydroxy-2-(dipropylamino) tetralin (8-OH-DPAT), 0.40 nM [^3H]ketanserin, and 1.4 nM [^3H]mesulgerine. The radioligand displacement for each examined drug was determined. Specific binding of the radioligand to the target was calculated by subtracting the nonspecific binding (in the presence of the receptor’s competitor in excess) from the total observed binding. The following radioligand competitors were used for the 5-HT1A, 5-HT2A, and 5-HT2C receptors, respectively; 10 μM pindolol (5-HT1A receptor), 10 μM spiperone (5-HT2A receptor), and 10 μM mianserin (5-HT2C receptor).

[3] = target: T3, h5-HT2B receptor (Homo sapiens, UniProt P41595); assay: Activation potency, FLIPR calcium assay in HEK293 cells; assay type: cell-based
T3 construct: expressed in transfected cells; host or cells: HEK293
T3 sequence (P41595 whole entry): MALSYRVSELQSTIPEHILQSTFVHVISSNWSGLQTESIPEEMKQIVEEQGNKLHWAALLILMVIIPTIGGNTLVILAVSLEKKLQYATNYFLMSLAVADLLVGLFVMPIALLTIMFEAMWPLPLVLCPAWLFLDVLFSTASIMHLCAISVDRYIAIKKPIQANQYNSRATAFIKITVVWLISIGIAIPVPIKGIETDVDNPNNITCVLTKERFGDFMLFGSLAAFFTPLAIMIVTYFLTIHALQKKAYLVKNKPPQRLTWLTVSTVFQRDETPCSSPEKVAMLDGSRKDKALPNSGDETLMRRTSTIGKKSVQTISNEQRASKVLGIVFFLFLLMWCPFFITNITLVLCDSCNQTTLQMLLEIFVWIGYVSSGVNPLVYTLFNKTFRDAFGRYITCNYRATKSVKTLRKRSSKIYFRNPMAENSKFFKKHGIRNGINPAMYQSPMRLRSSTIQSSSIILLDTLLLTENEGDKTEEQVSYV
Method: Human embryonic kidney 293 (HEK293) cells were transfected with the human 5-HT2B receptors, seed into 96-well plates coated with poly-D-lysine at a concentration of 50,000 cell per 0.1 mL and then incubated for overnight at 37 °C in high glucose Dulbecco’s modified Eagle’s medium (DMEM; Invitrogen, Zug, Switzerland) containing 10% fetal calf serum (non-dialyzed, heat-inactivated), 250 mg/L Geneticin, and 10 mL/L PenStrep (Gibco). The medium was then removed using snap inversion and the cells were incubated with the 100 μL/well of calcium indicator Fluo-3-solution for 45 min at 31 °C (Molecular Probes, Eugene, OR, USA). Thereafter, the solution was removed using snap inversion and replaced with fresh calcium indicator Fluo-3-solution for an additional 45 min at 31 °C. The cells were then washed with HBSS and 20 mM HEPES using the EMBLA cell washer and immediately after incubated with 100 μL of assay buffer. The plate was then put into the FLIPR, turned online and the test drugs, diluted in the assay buffer were added to the corresponding wells (25 μL/well). The corresponding concentration vs. response curves were fitted using nonlinear regression and the EC50 values were calculated. The efficacy (maximal activity) was calculated relative to 5-HT activity, which was defined as 100%.

Structure (SMILES)	IC50 [1] [µM]	Ki [2] [µM]	EC50 [3] [µM]	fold lower potency at the NET ([1]; compared to pyrovalerone and MPHP) [fold]	fold higher inhibition potency at the NET [1] [fold]	NET IC50 value fold higher ([1]; than observed for α-PPP)
CCCC(C(=O)c1ccc2c(c1)OCO2)N1CCCC1 (centres unmarked) [MDPV, 3,4-methylenedioxypyrovalerone]	0.05	7.7 ± 0.6	> 20			
CCC(C(=O)c1ccc(F)cc1)N1CCCC1 (stereo not drawn) [4F-PBP, 4-fluoro-α-pyrrolidinobutiophenone]	0.61	6 ± 3.4	> 20			
CCCC(C(=O)c1ccc(C)cc1)N1CCCC1 (centres unmarked) [Pyrovalerone, pyrovalerone]	0.06	13 ± 1.4	> 20			
CC(C(=O)c1ccccc1)N1CCCC1 (stereo not drawn) [α-PPP, α-pyrrolidinopropiophenone]	0.64	0.7 ± 0.3	> 20			
Cc1ccc(C(=O)C(C)N2CCCC2)cc1 (stereo not drawn) [4-MePPP, 4-methyl-α-pyrrolidinopropiophenone]	0.64	12 ± 2.2	> 10	11		
CCCCC(C(=O)c1ccc(C)cc1)N1CCCC1 (stereo not drawn) [MPHP, 4-methyl-α-pyrrolidinohexanophenone]	0.07	13 ± 1.9	> 20			
CC(C(=O)c1ccc2c(c1)OCO2)N1CCCC1 (stereo not drawn) [MDPPP, 3,4-methylenedioxy-α-pyrrolidinopropiophenone]	1.7	1.9 ± 0.8	> 20			
CCCCC(C(=O)c1ccccc1)N1CCCC1 (stereo not drawn) [α-PHP, α-pyrrolidinohexanophenone]	0.06	11 ± 5.3	> 20		11	
CCCCC(C(=O)c1ccc2c(c1)OCO2)N1CCCC1 (stereo not drawn) [MDPHP, 3,4-methylenedioxy-α-pyrrolidinohexanophenone]	0.06	13 ± 1.9	> 20			
CCC(C(=O)c1ccc2c(c1)OCO2)N1CCCC1 (stereo not drawn) [MDPBP, 3,4-methylenedioxy-α-pyrrolidinobutiophenone]	0.14	9 ± 1.5	> 20			
COc1ccc(C(=O)C(C)N2CCCC2)cc1 (stereo not drawn) [MOPPP, 4-methoxy-α-pyrrolidinopropiophenone]	8.7	> 17	> 20			about 14 fold
CNC(C)Cc1ccc2c(c1)OCO2 (centres unmarked) [MDMA, 3,4-methylenedioxymethamphetamine, reference compound]	0.41					
CCCC(C(=O)c1ccccc1)N1CCCC1 (stereo not drawn) [α-PVP, α-pyrrolidinopentiophenone]	0.02	6.1 ± 0.7	> 20		32	
CCCCC(NCC)C(=O)c1ccccc1 (centres unmarked) [NEH, N-ethylamine-hexanophenone]	0.17	> 17	> 20			
